Legend:
[1] = target: T1, human FPR1 (Homo sapiens, UniProt P21462); test: FPR1 cyclic adenosine monophosphate (cAMP) assay; format: cell-based; details: CHO cells overexpressing human FPR1; forskolin 10 μM; inhibition of cAMP production; HTRF; read-out: hFPR1 cAMP2 EC50
T1 sequence (P21462 1-350): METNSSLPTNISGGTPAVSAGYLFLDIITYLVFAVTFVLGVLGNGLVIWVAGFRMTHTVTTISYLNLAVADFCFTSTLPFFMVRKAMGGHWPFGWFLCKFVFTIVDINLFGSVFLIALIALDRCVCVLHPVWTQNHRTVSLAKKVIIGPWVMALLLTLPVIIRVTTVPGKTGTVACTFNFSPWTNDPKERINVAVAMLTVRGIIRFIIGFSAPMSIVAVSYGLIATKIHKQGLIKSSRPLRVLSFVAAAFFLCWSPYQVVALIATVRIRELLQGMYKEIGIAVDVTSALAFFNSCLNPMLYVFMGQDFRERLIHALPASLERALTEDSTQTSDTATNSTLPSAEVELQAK
Procedure, shortened: (§1)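 Gi-coupled activity is read as suppression of forskolin-stimulated cAMP (10 μM final for FPR1, 5 μM final for FPR2; IBMX 200 μM final) in recombinant CHO cells, 30 min incubation at rt, HTRF detection.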

[2] = target: T2, human FPR2 (Homo sapiens, UniProt P25090); test: FPR2 cyclic adenosine monophosphate (cAMP) assay; format: cell-based; details: CHO cells overexpressing human FPR2; forskolin 5 μM; inhibition of cAMP production; HTRF; read-out: hFPR2 cAMP2 EC50
T2 sequence (P25090 1-351): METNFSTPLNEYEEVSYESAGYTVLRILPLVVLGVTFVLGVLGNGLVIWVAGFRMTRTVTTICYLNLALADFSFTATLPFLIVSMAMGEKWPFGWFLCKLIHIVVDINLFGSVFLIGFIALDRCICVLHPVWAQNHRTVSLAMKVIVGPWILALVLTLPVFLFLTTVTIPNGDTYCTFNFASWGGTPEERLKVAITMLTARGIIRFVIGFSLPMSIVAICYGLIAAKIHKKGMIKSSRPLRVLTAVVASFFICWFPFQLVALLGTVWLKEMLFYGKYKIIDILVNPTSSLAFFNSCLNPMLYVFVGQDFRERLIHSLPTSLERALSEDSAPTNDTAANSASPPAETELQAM
Procedure, shortened: as §1

Row | SMILES | EC50 [1] [nM] | EC50 [2] [nM]
1 | COc1cc(F)c(-c2c(NC(=O)c3ccc(OC(F)F)cc3)c(=O)n(-c3cc(OC)ccc3Cl)n2C)c(F)c1 [Example 198, N-[2-(2-chloro-5-methoxyphenyl)-5-(2,6-difluoro-4-methoxyphenyl)-1-methyl-3-oxo-2,3-dihydro-1H-pyrazol-4-yl]-4-(difluoromethoxy)benzamide] | > 10000 | 13
2 | COc1cc(F)c(-c2c(NC(=O)c3ccc(OC(F)(F)F)cc3)c(=O)n(-c3cccnc3C#N)n2C)c(F)c1 [Example 170, N-[2-(2-cyanopyridin-3-yl)-5-(2,6-difluoro-4-methoxyphenyl)-1-methyl-3-oxo-2,3-dihydro-1H-pyrazol-4-yl]-4-(trifluoromethoxy)benzamide] | > 10000 | 8
3 | COc1cc(F)c(-c2c(NC(=O)c3ccc(Cl)cc3)c(=O)n(-c3ccc(Cl)cn3)n2C)c(F)c1 [Example 43, 4-chloro-N-[2-(5-chloropyridin-2-yl)-5-(2,6-difluoro-4-methoxyphenyl)-1-methyl-3-oxo-2,3-dihydro-1H-pyrazol-4-yl]benzamide] | > 10000 | 41
4 | COc1cc(F)c(-c2c(NC(=O)c3ccc(OC(F)F)cc3)c(=O)n(-c3cc(C)cc(C#N)n3)n2C)c(F)c1 [Example 362, N-(2-(6-Cyano-4-methylpyridin-2-yl)-5-(2,6-difluoro-4-methoxyphenyl)-1-methyl-3-oxo-2,3-dihydro-1H-pyrazol-4-yl)-4-(difluoromethoxy)benzamide] | > 10000 | 10
5 | COc1cc(C2CCN(C)CC2)nc(-n2c(=O)c(NC(=O)c3ccc(OC(F)F)cc3)c(-c3c(F)cc(OC)cc3F)n2C)c1 [Example 363, N-(5-(2,6-Difluoro-4-methoxyphenyl)-2-(4-methoxy-6-(1-methylpiperidin-4-yl)pyridin-2-yl)-1-methyl-3-oxo-2,3-dihydro-1H-pyrazol-4-yl)-4-(difluoromethoxy)benzamide] | > 10000 | 3
6 | COc1cc(F)c(-c2c(NC(=O)c3ccc(OC(F)F)cc3)c(=O)n(-c3cc(Cl)cc(OC(F)(F)F)c3)n2C)c(F)c1 [Example 123, N-{2-[3-chloro-5-(trifluoromethoxy)phenyl]-5-(2,6-difluoro-4-methoxyphenyl)-1-methyl-3-oxo-2,3-dihydro-1H-pyrazol-4-yl}-4-(difluoromethoxy)benzamide] | > 10000 | 19
7 | COc1cc(F)c(-c2c(NC(=O)c3ccc(OC(F)F)cc3)c(=O)n(-c3nc(C(F)(F)F)ccc3Br)n2C)c(F)c1 [Example 159, N-{2-[3-bromo-6-(trifluoromethyl)pyridin-2-yl]-5-(2,6-difluoro-4-methoxyphenyl)-1-methyl-3-oxo-2,3-dihydro-1H-pyrazol-4-yl}-4-(difluoromethoxy)benzamide] | > 10000 | 7
8 | COc1cc(F)c(-c2c(NC(=O)c3ccc(OC(F)F)cc3)c(=O)n(-c3nc(NC4(C)CC4)ccc3C(F)(F)F)n2C)c(F)c1 [Example 266, N-[5-(2,6-difluoro-4-methoxyphenyl)-1-methyl-2-{6-[(1-methylcyclopropyl)amino]-3-(trifluoromethyl)pyridin-2-yl}-3-oxo-2,3-dihydro-1H-pyrazol-4-yl]-4-(difluoromethoxy)benzamide] | > 10000 | 4
9 | COc1cc(F)c(-c2c(NC(=O)c3ccc(OC(F)F)cc3)c(=O)n(-c3nc(N4CCC[C@H]4C(N)=O)ccc3C(F)(F)F)n2C)c(F)c1 [Example 216, (2S)-1-{6-[3-(2,6-difluoro-4-methoxyphenyl)-4-[4-(difluoromethoxy)benzamido]-2-methyl-5-oxo-2,5-dihydro-1H-pyrazol-1-yl]-5-(trifluoromethyl)pyridin-2-yl}pyrrolidine-2-carboxamide] | > 10000 | 6
10 | COc1cc(F)c(-c2c(NC(=O)c3ccc(OC(F)F)cc3)c(=O)n(-c3nc(C4CC4)ccc3C#N)n2C)c(F)c1 [Example 161, N-[2-(3-cyano-6-cyclopropylpyridin-2-yl)-5-(2,6-difluoro-4-methoxyphenyl)-1-methyl-3-oxo-2,3-dihydro-1H-pyrazol-4-yl]-4-(difluoromethoxy)benzamide] | > 10000 | 4
11 | COc1cc(F)c(-c2c(NC(=O)c3ccc(OC(F)(F)F)cc3)c(=O)n(-c3ncccc3C(F)(F)F)n2C)c(F)c1 [Example 154, N-[5-(2,6-difluoro-4-methoxyphenyl)-1-methyl-3-oxo-2-[3-(trifluoromethyl)pyridin-2-yl]-2,3-dihydro-1H-pyrazol-4-yl]-4-(trifluoromethoxy)benzamide] | > 10000 | 4

Results, then the compound that gave them:

Row | EC50 [1] [nM] | EC50 [2] [nM] | SMILES
12 | > 10000 | 2 | COc1cc(F)c(-c2c(NC(=O)c3ccc(OC(F)F)cc3)c(=O)n(-c3nc(NC(C)(C)C)ccc3C(F)(F)F)n2C)c(F)c1 [Example 265, N-{2-[6-(tert-butylamino)-3-(trifluoromethyl)pyridin-2-yl]-5-(2,6-difluoro-4-methoxyphenyl)-1-methyl-3-oxo-2,3-dihydro-1H-pyrazol-4-yl}-4-(difluoromethoxy)benzamide]
13 | 1500 | 13 | COc1cc(F)c(-c2c(NC(=O)c3ccc(OC(F)F)cc3)c(=O)n(-c3cccc(N4CCCCC4=O)n3)n2C)c(F)c1 [Example 150, N-[5-(2,6-difluoro-4-methoxyphenyl)-1-methyl-3-oxo-2-[6-(2-oxopiperidin-1-yl)pyridin-2-yl]-2,3-dihydro-1H-pyrazol-4-yl]-4-(difluoromethoxy)benzamide]
14 | > 10000 | 15 | COc1cc(OCC2CCS(=O)(=O)CC2)nc(-n2c(=O)c(NC(=O)c3ccc(OC(F)F)cc3)c(-c3c(F)cc(OC)cc3F)n2C)c1 [Example 337, N-(5-(2,6-Difluoro-4-methoxyphenyl)-2-(6-((1,1-dioxidotetrahydro-2H-thiopyran-4-yl)methoxy)-4-methoxypyridin-2-yl)-1-methyl-3-oxo-2,3-dihydro-1H-pyrazol-4-yl)-4-(difluoromethoxy)benzamide]
15 | 2 | 4 | COc1cc(F)c(-c2c(NC(=O)c3ccc(OC(F)F)cc3)c(=O)n(-c3cccc(C4CC4)c3)n2C)c(F)c1 [Example 111, N-[2-(3-cyclopropylphenyl)-5-(2,6-difluoro-4-methoxyphenyl)-1-methyl-3-oxo-2,3-dihydro-1H-pyrazol-4-yl]-4-(difluoromethoxy)benzamide]
16 | 4800 | 2 | COc1cc(F)c(-c2c(NC(=O)c3ccc(OC(F)F)cc3)c(=O)n(-c3nc(C4CCC4)ccc3C#N)n2C)c(F)c1 [Example 191, N-(2-(3-cyano-6-cyclobutylpyridin-2-yl)-5-(2,6-difluoro-4-methoxyphenyl)-1-methyl-3-oxo-2,3-dihydro-1H-pyrazol-4-yl)-4-(difluoromethoxy)benzamide]
17 | 2000 | 21 | COc1cc(F)c(-c2c(NC(=O)c3ccc(OC(F)F)cc3)c(=O)n(-c3ccnc(Cl)c3)n2C)c(F)c1 [Example 116, N-[2-(2-chloropyridin-4-yl)-5-(2,6-difluoro-4-methoxyphenyl)-1-methyl-3-oxo-2,3-dihydro-1H-pyrazol-4-yl]-4-(difluoromethoxy)benzamide]
18 | 4500 | 6 | COc1cc(OCC(F)(F)F)nc(-n2c(=O)c(NC(=O)c3ccc(OC(F)F)cc3)c(-c3c(F)cc(OC)cc3F)n2C)c1 [Example 389, N-(5-(2,6-Difluoro-4-methoxyphenyl)-2-(4-methoxy-6-(2,2,2-trifluoroethoxy)pyridin-2-yl)-1-methyl-3-oxo-2,3-dihydro-1H-pyrazol-4-yl)-4-(difluoromethoxy)benzamide]
19 | 210 | 1 | COc1ccc(-c2c(NC(=O)c3ccc(OC(F)F)cc3)c(=O)n(-c3nc(N4CCC(C)(O)CC4)ccc3C(F)(F)F)n2C)c(F)c1 [Example 313, 4-(difluoromethoxy)-N-[5-(2-fluoro-4-methoxyphenyl)-2-[6-(4-hydroxy-4-methylpiperidin-1-yl)-3-(trifluoromethyl)pyridin-2-yl]-1-methyl-3-oxo-2,3-dihydro-1H-pyrazol-4-yl]benzamide]
20 | 3300 | 7 | COc1cc(F)c(-c2c(NC(=O)c3ccc(Cl)cc3)c(=O)n(-c3nc(N4CC(OC(C)C)C4)ccc3C(F)(F)F)n2C)c(F)c1 [Example 141, 4-chloro-N-[5-(2,6-difluoro-4-methoxyphenyl)-1-methyl-3-oxo-2-{6-[3-(propan-2-yloxy)azetidin-1-yl]-3-(trifluoromethyl)pyridin-2-yl}-2,3-dihydro-1H-pyrazol-4-yl]benzamide]
